The structures appear in SMILES notation.

Our source for the IC50 values is patent US8148391B2 (Cephalon, Inc., priority 2006, dated 2012).

Experiment [1] addresses T1, baculovirus-expressed ALK (Homo sapiens, UniProt Q9UM73).
T1 construct: host or cells: baculovirus expression system
As to the kind of experiment: ALK Kinase Assay (ELISA-type, time-resolved fluorescence). The experiment is classed as biochemical. As to conditions: 1 μM ATP (Km level), 30 ng/ml ALK, 37° C., 15 minutes; read-out: ALK Activity (ALK kinase inhibition, IC50 class). The essentials: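 Substrate coating: phospholipase C-γ, 10 μg/mL in TBS. Kinase step: 30 ng/ml ALK, 15 min, 37° C. Detection and analysis: Eu-N1 PT66 antibody, with IC50 fitted as a sigmoidal variable-slope dose-response curve.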

Experiment [2] concerns the target T2, c-Met (cytoplasmic domain) (Homo sapiens, UniProt P08581).
T2 construct: 10 ng/mL c-Met (cytoplasmic domain, Invitrogen Corporation #PV3143); purchased Invitrogen Corporation PV3143
As to the kind of experiment: c-Met Kinase Assay (same methods as for ALK, with modifications). The experiment is classed as biochemical. As to conditions: 1 μM ATP (Km level), 10 ng/mL c-Met; read-out: cMet Activity (c-Met kinase inhibition, IC50 class). The essentials:
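This plate-based kinase format uses immobilized phospholipase C-γ as substrate, phosphorylated by c-Met cytoplasmic domain (10 ng/mL) at 37° C for 15 minutes.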

T2 sequence (P08581 956-1390 limits assumed): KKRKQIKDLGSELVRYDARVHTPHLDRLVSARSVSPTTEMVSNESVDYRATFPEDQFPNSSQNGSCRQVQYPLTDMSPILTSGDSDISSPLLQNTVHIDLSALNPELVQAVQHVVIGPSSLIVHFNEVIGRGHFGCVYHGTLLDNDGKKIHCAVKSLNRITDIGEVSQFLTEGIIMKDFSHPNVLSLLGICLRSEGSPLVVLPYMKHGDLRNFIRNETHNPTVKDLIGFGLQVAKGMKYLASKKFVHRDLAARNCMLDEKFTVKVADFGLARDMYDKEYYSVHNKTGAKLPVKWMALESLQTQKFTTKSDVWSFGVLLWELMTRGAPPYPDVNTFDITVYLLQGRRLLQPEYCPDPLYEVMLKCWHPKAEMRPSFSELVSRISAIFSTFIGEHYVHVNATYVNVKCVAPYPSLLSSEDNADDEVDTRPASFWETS
T1 sequence (Q9UM73 19-1620): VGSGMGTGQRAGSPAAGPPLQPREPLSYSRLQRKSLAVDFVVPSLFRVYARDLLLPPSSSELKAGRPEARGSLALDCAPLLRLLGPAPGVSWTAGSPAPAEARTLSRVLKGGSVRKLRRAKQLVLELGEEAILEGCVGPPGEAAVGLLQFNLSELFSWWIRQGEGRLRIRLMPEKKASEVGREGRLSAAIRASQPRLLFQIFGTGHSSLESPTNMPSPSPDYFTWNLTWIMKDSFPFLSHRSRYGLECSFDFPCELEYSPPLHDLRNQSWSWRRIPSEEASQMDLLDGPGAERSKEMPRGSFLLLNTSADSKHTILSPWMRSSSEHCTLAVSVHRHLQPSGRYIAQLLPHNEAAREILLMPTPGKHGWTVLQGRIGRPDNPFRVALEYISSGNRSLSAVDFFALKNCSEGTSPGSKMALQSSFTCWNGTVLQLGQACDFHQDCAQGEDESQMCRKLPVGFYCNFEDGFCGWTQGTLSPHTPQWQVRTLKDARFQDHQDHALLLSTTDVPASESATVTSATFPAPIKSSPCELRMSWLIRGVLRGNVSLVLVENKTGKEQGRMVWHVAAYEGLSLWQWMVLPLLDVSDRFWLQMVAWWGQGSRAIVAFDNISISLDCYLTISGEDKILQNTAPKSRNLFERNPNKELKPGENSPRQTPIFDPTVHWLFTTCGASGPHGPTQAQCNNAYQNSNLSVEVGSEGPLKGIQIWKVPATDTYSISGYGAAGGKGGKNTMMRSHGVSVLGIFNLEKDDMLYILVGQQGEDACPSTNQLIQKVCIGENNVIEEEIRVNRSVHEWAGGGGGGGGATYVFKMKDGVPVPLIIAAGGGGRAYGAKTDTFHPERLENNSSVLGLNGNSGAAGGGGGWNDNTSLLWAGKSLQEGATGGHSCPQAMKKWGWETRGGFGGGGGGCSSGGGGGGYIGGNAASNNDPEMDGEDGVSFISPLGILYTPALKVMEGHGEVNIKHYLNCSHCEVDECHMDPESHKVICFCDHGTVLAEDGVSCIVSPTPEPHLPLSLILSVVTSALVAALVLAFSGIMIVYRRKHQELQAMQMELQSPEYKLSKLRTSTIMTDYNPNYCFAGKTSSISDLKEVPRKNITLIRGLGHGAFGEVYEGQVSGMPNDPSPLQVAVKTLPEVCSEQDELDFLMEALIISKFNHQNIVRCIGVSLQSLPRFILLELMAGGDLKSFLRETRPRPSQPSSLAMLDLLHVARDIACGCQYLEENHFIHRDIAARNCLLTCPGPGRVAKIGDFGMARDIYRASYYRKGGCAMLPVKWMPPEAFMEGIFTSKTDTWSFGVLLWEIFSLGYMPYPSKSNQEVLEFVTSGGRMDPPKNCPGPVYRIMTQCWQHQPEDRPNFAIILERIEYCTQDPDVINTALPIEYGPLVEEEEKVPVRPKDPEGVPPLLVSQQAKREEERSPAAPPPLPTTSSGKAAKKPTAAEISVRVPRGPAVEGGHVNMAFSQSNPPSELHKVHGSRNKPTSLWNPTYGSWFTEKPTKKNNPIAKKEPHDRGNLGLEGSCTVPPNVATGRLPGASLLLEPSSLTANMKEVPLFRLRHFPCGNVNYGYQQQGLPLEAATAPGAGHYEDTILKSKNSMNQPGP

In the case of `CNC(=O)c1cccc(F)c1Nc1nc(Nc2ccc3c(c2)CCN(C[C@@H](OC)C(F)(F)F)CC3)ncc1Cl` [Example 1361, 2-{5-Chloro-2-[3-((R)-3,3,3-trifluoro-2-methoxy-propyl)-2,3,4,5-tetrahydro-1H-benzo[d]azepin-7-ylamino]-pyrimidin-4-ylamino}-3-fluoro-N-methyl-benzamide], the IC50 in experiment [1] and in experiment [2] was below 0.1 µM in each case.
As for `CNC(=O)c1scc(C)c1Nc1nc(Nc2ccc3c(c2)CCN(CCOC)CC3)ncc1Cl` [Example 1362, 3-{5-Chloro-2-[3-(2-methoxy-ethyl)-2,3,4,5-tetrahydro-1H-benzo[d]azepin-7-ylamino]-pyrimidin-4-ylamino}-4-methyl-thiophene-2-carboxylic acid methylamide], the IC50 in experiment [1] was 0.1 to 1 µM; in experiment [2] it was below 0.1 µM.
As to `CCNC(=O)c1cccc(F)c1Nc1nc(Nc2cc3c(cc2OC)CCN(CC(=O)NC)CC3)ncc1Cl` [Example 1364, 2-[5-Chloro-2-(8-methoxy-3-methylcarbamoylmethyl-2,3,4,5-tetrahydro-1H-benzo[d]azepin-7-ylamino)-pyrimidin-4-ylamino]-N-ethyl-3-fluoro-benzamide], the IC50 in experiment [1] is below 0.1 µM; in experiment [2] it was 1 to 10 µM.
`CCNC(=O)c1cccc(F)c1Nc1nc(Nc2ccc3c(c2)C(C)(C)CCC(=O)N3)ncc1Cl` [Example 1365, 2-[5-Chloro-2-(5,5-dimethyl-2-oxo-2,3,4,5-tetrahydro-1H-benzo[b]azepin-7-ylamino)-pyrimidin-4-ylamino]-N-ethyl-3-fluoro-benzamide]: the IC50 in experiment [1] and in experiment [2] was below 0.1 µM each time.
As for `CCNC(=O)c1cccc(F)c1Nc1nc(Nc2ccc3c(c2)C(C)(C)CCC(=O)N3C)ncc1Cl` [Example 1366, 2-[5-Chloro-2-(1,5,5-trimethyl-2-oxo-2,3,4,5-tetrahydro-1H-benzo[b]azepin-7-ylamino)-pyrimidin-4-ylamino]-N-ethyl-3-fluoro-benzamide], the IC50 in experiment [1] and in experiment [2] was below 0.1 µM each time.
With `CCNC(=O)c1cccc(F)c1Nc1nc(Nc2ccc3c(c2)CCN(CC(=O)N(C)C)CC3)ncc1Cl` [Example 1367, 2-[5-Chloro-2-(3-dimethylcarbamoylmethyl-2,3,4,5-tetrahydro-1H-benzo[d]azepin-7-ylamino)-pyrimidin-4-ylamino]-N-ethyl-3-fluoro-benzamide], the IC50 in experiment [1] and in experiment [2] was below 0.1 µM throughout.
Turning to `COc1cc(N2CCOCC2)ccc1Nc1nc(Nc2ccc3c(c2)CCN(CC(=O)N(C)C)CC3)ncc1Cl` [Example 1368, 2-{7-[5-Chloro-4-(2-methoxy-4-morpholin-4-yl-phenylamino)-pyrimidin-2-ylamino]-1,2,4,5-tetrahydro-benzo[d]azepin-3-yl}-N,N-dimethyl-acetamide], the IC50 was below 0.1 µM in experiment [1] and 1 to 10 µM in experiment [2].
In the case of `CNC(=O)c1cccc(F)c1Nc1nc(Nc2ccc3c(c2)CCN(CC(=O)N(C)C)CC3)ncc1Cl` [Example 1369, 2-[5-Chloro-2-(3-dimethylcarbamoylmethyl-2,3,4,5-tetrahydro-1H-benzo[d]azepin-7-ylamino)-pyrimidin-4-ylamino]-3-fluoro-N-methyl-benzamide], the IC50 in experiment [1] and in experiment [2] was below 0.1 µM in each case.
In the case of `CNC(=O)c1cccc(Cl)c1Nc1nc(Nc2ccc3c(c2)CCN(CC(=O)N(C)C)CC3)ncc1Cl` [Example 1370, 3-Chloro-2-[5-chloro-2-(3-dimethylcarbamoylmethyl-2,3,4,5-tetrahydro-1H-benzo[d]azepin-7-ylamino)-pyrimidin-4-ylamino]-N-methyl-benzamide], the values for the IC50 in experiment [1] and in experiment [2] were 0.1 to 1 µM and below 0.1 µM, respectively.
For `CN(C)C(=O)CN1CCc2ccc(Nc3ncc(Cl)c(N[C@@H]4CCCC[C@H]4NS(C)(=O)=O)n3)cc2CC1` [Example 1371, 2-{7-[5-Chloro-4-((1R,2R)-2-methanesulfonylamino-cyclohexylamino)-pyrimidin-2-ylamino]-1,2,4,5-tetrahydro-benzo[d]azepin-3-yl}-N,N-dimethyl-acetamide], the IC50 in experiment [1] was below 0.1 µM; in experiment [2], 0.1 to 1 µM.
For `CCNC(=O)c1cccc(F)c1Nc1nc(Nc2ccc3c(c2)CCN(CC(=O)NC)CC3)ncc1Cl` [Example 1372, 2-[5-Chloro-2-(3-methylcarbamoylmethyl-2,3,4,5-tetrahydro-1H-benzo[d]azepin-7-ylamino)-pyrimidin-4-ylamino]-N-ethyl-3-fluoro-benzamide], in that order: below 0.1 µM and below 0.1 µM.
Turning to `CNC(=O)CN1CCc2ccc(Nc3ncc(Cl)c(Nc4c(Cl)cccc4C(=O)NC)n3)cc2CC1` [Example 1373, 3-Chloro-2-[5-chloro-2-(3-methylcarbamoylmethyl-2,3,4,5-tetrahydro-1H-benzo[d]azepin-7-ylamino)-pyrimidin-4-ylamino]-N-methyl-benzamide], the IC50 in experiment [1] is 0.1 to 1 µM; in experiment [2] it was below 0.1 µM.
As to `CNC(=O)CN1CCc2ccc(Nc3ncc(Cl)c(N[C@@H]4CCCC[C@H]4NS(C)(=O)=O)n3)cc2CC1` [Example 1374, 2-{7-[5-Chloro-4-((1R,2R)-2-methanesulfonylamino-cyclohexylamino)-pyrimidin-2-ylamino]-1,2,4,5-tetrahydro-benzo[d]azepin-3-yl}-N-methyl-acetamide], the values for the IC50 in experiment [1] and in experiment [2] were below 0.1 µM and 0.1 to 1 µM, respectively.
For `COCCN1CCc2ccc(Nc3ncc(Cl)c(Nc4ccccc4Cl)n3)cc2CC1` [Example 1376, 5-Chloro-N(4)-(2-chloro-phenyl)-N(2)-[3-(2-methoxy-ethyl)-2,3,4,5-tetrahydro-1H-benzo[d]azepin-7-yl]-pyrimidine-2,4-diamine], in that order: below 0.1 µM and 0.1 to 1 µM.
For `COCCN1CCc2ccc(Nc3ncc(Cl)c(NC4CCCCC4)n3)cc2CC1` [Example 1377, 5-Chloro-N(4)-cyclohexyl-N(2)-[3-(2-methoxy-ethyl)-2,3,4,5-tetrahydro-1H-benzo[d]azepin-7-yl]-pyrimidine-2,4-diamine], in that order: below 0.1 µM and 0.1 to 1 µM.
For `COCCN1CCc2ccc(Nc3ncc(Cl)c(N[C@H]4CC[C@H](NS(C)(=O)=O)CC4)n3)cc2CC1` [Example 1378, trans-N-(4-{5-Chloro-2-[3-(2-methoxy-ethyl)-2,3,4,5-tetrahydro-1H-benzo[d]azepin-7-ylamino]-pyrimidin-4-ylamino}-cyclohexyl)-methanesulfonamide], in that order: 0.1 to 1 µM and above 10 µM.
Regarding `COCCN1CCc2ccc(Nc3ncc(Cl)c(N[C@H]4CC[C@@H](NS(C)(=O)=O)CC4)n3)cc2CC1` [Example 1381, cis-N-(4-{5-Chloro-2-[3-(2-methoxy-ethyl)-2,3,4,5-tetrahydro-1H-benzo[d]azepin-7-ylamino]-pyrimidin-4-ylamino}-cyclohexyl)-methanesulfonamide], the IC50 fell in the range of 0.1 to 1 µM in experiment [1] and 1 to 10 µM in experiment [2].
As for `COCCN1CCc2ccc(Nc3ncc(Cl)c(N[C@@H]4CCCC[C@H]4N(CC#N)S(C)(=O)=O)n3)cc2CC1` [Example 1383, N-((1R,2R)-2-{5-Chloro-2-[3-(2-methoxy-ethyl)-2,3,4,5-tetrahydro-1H-benzo[d]azepin-7-ylamino]-pyrimidin-4-ylamino}-cyclohexyl)-N-cyanomethyl-methanesulfonamide], the IC50 in experiment [1] is 0.1 to 1 µM; in experiment [2], 1 to 10 µM.
For `COCCN1CCc2ccc(Nc3ncc(Cl)c(N[C@H]4CC[C@@H](N(CC#N)S(C)(=O)=O)CC4)n3)cc2CC1` [Example 1384, cis-N-(4-{5-Chloro-2-[3-(2-methoxy-ethyl)-2,3,4,5-tetrahydro-1H-benzo[d]azepin-7-ylamino]-pyrimidin-4-ylamino}-cyclohexyl)-N-cyanomethyl-methanesulfonamide], the figures for the IC50 in experiment [1] and in experiment [2] were 0.1 to 1 µM and 1 to 10 µM, respectively.
Take `COCCN1CCc2ccc(Nc3ncc(Cl)c(N[C@H]4CC[C@H](N(CC#N)S(C)(=O)=O)CC4)n3)cc2CC1` [Example 1385, trans-N-(4-{5-Chloro-2-[3-(2-methoxy-ethyl)-2,3,4,5-tetrahydro-1H-benzo[d]azepin-7-ylamino]-pyrimidin-4-ylamino}-cyclohexyl)-N-cyanomethyl-methanesulfonamide]: the figures for the IC50 in experiment [1] and in experiment [2] were 0.1 to 1 µM and 1 to 10 µM, respectively.
For `C#CCNC(=O)c1ccccc1Nc1nc(Nc2ccc3c(c2)CCN(CCOC)CC3)ncc1Cl` [Example 1387, 2-{5-Chloro-2-[3-(2-methoxy-ethyl)-2,3,4,5-tetrahydro-1H-benzo[d]azepin-7-ylamino]-pyrimidin-4-ylamino}-N-prop-2-ynyl-benzamide], in that order: below 0.1 µM and below 0.1 µM.
Regarding `C#CCN(C)C(=O)c1ccccc1Nc1nc(Nc2ccc3c(c2)CCN(CCOC)CC3)ncc1Cl` [Example 1389, {5-Chloro-2-[3-(2-methoxy-ethyl)-2,3,4,5-tetrahydro-1H-benzo[d]azepin-7-ylamino]-pyrimidin-4-ylamino}-N-methyl-N-prop-2-ynyl-benzamide], the IC50 in experiment [1] was below 0.1 µM; in experiment [2], 0.1 to 1 µM.
For the compound `COc1cc2c(cc1Nc1ncc(Cl)c(Nc3ccc(N4CCOCC4)cc3OC)n1)CCN(C(CF)CF)CC2` [Example 1391, Chloro-N(2)-[3-(2-fluoro-1-fluoromethyl-ethyl)-8-methoxy-2,3,4,5-tetrahydro-1H-benzo[d]azepin-7-yl]-N(4)-(2-methoxy-4-morpholin-4-yl-phenyl)-pyrimidine-2,4-diamine], the IC50 in experiment [1] is below 0.1 µM; in experiment [2], above 10 µM.
